According to patent US12030908B2, “Antimicrobial compounds, compositions, and uses thereof” (Lakewood Amedex, Inc., priority 2017, dated 2024):

Key:
[1] = tested on: E. coli ATCC25922; assay: Urinary tract infection model in rats, transurethral treatment (Example 11); type: in vivo, Sprague-Dawley rats; settings: 60 min
Description: Female Sprague-Dawley rats (n=6/group) are intraurethrally infected with the predetermined inoculum size of E. coli. At the specified time following infection with (depending on the in vivo growth curve), the animals are anaesthetized (ketamine/xylazine) and treated by transurethral administration with neutral saline (group 1), saline pH 3.5 adjusted with phosphoric acid (group 2), test compound Nu-8 pH 3.5 at 103 and 207 mg/kg (groups 3 and 4, respectively). When adjusting pH, the volume of phosphoric acid added are monitored and the final concentration of the pH adjusted dose solution are subsequently determined. The goal is to have the final concentration after pH adjustment within 10% of the desired dose so the final concentration after pH adjustment are reported. Volume of administration will be 300 μL. TABLE 9 (Animal Challenge and Treatment Schedule) summarizes the study groups.
Two hours prior to each infection animals are water deprived. Each animal is infected twice with 24 hrs difference by transurethral administration of 300 μL of bacterial suspension under light ketamine and xylazine anaesthesia. Prior to infection, urine is evacuated by digital pressure, cannula is gently inserted into the bladder via urethra, and 300 μL of bacterial suspension is inserted into the bladder. […]

[2] = tested on: P. aeruginosa; assay: Broth microdilution MIC at incremental pH, P. aeruginosa; type: cell-based
Description: MIC testing is conducted using the broth (Mueller Hinton Broth) microdilution procedures relevant to each organism group as established by the Clinical and Laboratory Standards Institute (CLSI; 3-7). MIC plates are prepared in accordance with CLSI (3-7). To prepare the test plates, automated liquid handlers are used to conduct serial dilutions and liquid transfers. Automated liquid handlers utilized in this study include the Multidrop 384 (Labsystems, Helsinki, Finland) and the Biomek 2000 (Beckman Coulter, Fullerton CA). The solution is diluted to desired pH using 1 M Citric Acid or 1 M NaOH buffer. A standardized inoculum of each test organism is prepared per CLSI methods (3, 5-7) to equal a 0.5 McFarland standard in the appropriate media followed by an additional 1:20 dilution (1:10 for anaerobes).
The plates are then inoculated with 10 μL of the diluted 0.5 McFarland suspension using the Biomek 2000 from low to high drug concentration, resulting in a final concentration of approximately 5×10^5 CFU/mL per well. An un-inoculated plate is incubated for the purpose of assessing solubility of the drug in the test media. The plates are stacked 3 to 4 high, covered with a sterile lid on the top plate, and incubated for 18 to 24 hours according to CLSI. The MIC is recorded as the lowest concentration of respective compound that inhibited visible growth of the organism.

## CCCCOP(=O)(O)OC[C@H]1O[C@@H](n2ccc(N)nc2=O)C[C@@H]1OP(=O)(O)OCCCC [Nu-8, sodium ((2R,3S,5R)-5-(4-amino-2-oxopyrimidin-1(2H)-yl)-3-((butoxyoxidophosphor-yl)oxy)tetrahydrofuran-2-yl)methyl butyl phosphate]
[1]; pH 3.5, 103 mg/kg transurethral
  mean CFU log 10 per mL of bladder tissue (tissue plus urine): 5.53 Log 10 CFUs/mL bladder tissue
[1]; pH 3.5, 207 mg/kg transurethral
  mean CFU log 10 per mL of bladder tissue (tissue plus urine): 4.60 Log 10 CFUs/mL bladder tissue
[2]; pH 1
  MIC: 9.38 mg/mL
[2]; pH 3
  MIC: 18.75 mg/mL
[2]; pH 4
  MIC: 37.5 mg/mL
[2]; pH 5
  MIC: 75 mg/mL
[2]; pH 7
  MIC: >75 mg/mL
